# Reference: the supplement of paper PMC10307832
# Legend:
# Assay in all cases: relative viability (nuclei count vs DMSO), 5 days (fraction); higher = more cells survive
# Bleomycin + Trametinib = compound: CC1=C(N=C(N=C1N)[C@H](CC(=O)N)NC[C@@H](C(=O)N)N)C(=O)N[C@@H]([C@H](C2=CN=CN2)OC3C(C(C(C(O3)CO)O)O)OC4C(C(C(C(O4)CO)O)OC(=O)N)O)C(=O)N[C@H](C)[C@H]([C@H](C)C(=O)N[C@@H]([C@@H](C)O)C(=O)NCCC5=NC(=CS5)C6=NC(=CS6)C(=O)NCCC[S+](C)C)O [Bleomycin] + CC(=O)Nc1cccc(-n2c(=O)n(C3CC3)c(=O)c3c(Nc4ccc(I)cc4F)n(C)c(=O)c(C)c32)c1 [Trametinib] (partner 0.02 µM); settings: main component drawn
# Method in brief: (§1)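 Dosing by pin tool came one day after lung cancer cell lines were seeded in 1536-well plates, using either one drug or a fixed anchor-drug dose plus five library-drug doses (not always all listed) in √10 steps. After 5 days, nuclei were counted on 4× images. Relative viability is treated-well nuclei count divided by vehicle-well nuclei count, and values are medians of duplicate plates.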
# Etoposide + Olaparib = compound: COc1cc([C@@H]2c3cc4c(cc3[C@@H](O[C@@H]3O[C@@H]5CO[C@@H](C)O[C@H]5[C@H](O)[C@H]3O)[C@H]3COC(=O)[C@H]23)OCO4)cc(OC)c1O [Etoposide] + O=C(c1cc(Cc2n[nH]c(=O)c3ccccc23)ccc1F)N1CCN(C(=O)C2CC2)CC1 [Olaparib] (partner 8 µM)
# Method in brief: as §1
# Etoposide + Pictilisib = compound: COc1cc([C@@H]2c3cc4c(cc3[C@@H](O[C@@H]3O[C@@H]5CO[C@@H](C)O[C@H]5[C@H](O)[C@H]3O)[C@H]3COC(=O)[C@H]23)OCO4)cc(OC)c1O [Etoposide] + CS(=O)(=O)N1CCN(Cc2cc3nc(-c4cccc5[nH]ncc45)nc(N4CCOCC4)c3s2)CC1 [Pictilisib] (partner 1 µM)
# Method in brief: as §1
# Bleomycin + Luminespib = compound: CC1=C(N=C(N=C1N)[C@H](CC(=O)N)NC[C@@H](C(=O)N)N)C(=O)N[C@@H]([C@H](C2=CN=CN2)OC3C(C(C(C(O3)CO)O)O)OC4C(C(C(C(O4)CO)O)OC(=O)N)O)C(=O)N[C@H](C)[C@H]([C@H](C)C(=O)N[C@@H]([C@@H](C)O)C(=O)NCCC5=NC(=CS5)C6=NC(=CS6)C(=O)NCCC[S+](C)C)O [Bleomycin] + CCNC(=O)c1noc(-c2cc(C(C)C)c(O)cc2O)c1-c1ccc(CN2CCOCC2)cc1 [Luminespib] (partner 0.01 µM); settings: main component drawn
# Method in brief: as §1
Cell Line,relative viability (Bleomycin + Trametinib; first compound 0.01 µM),relative viability (Bleomycin + Trametinib; first compound 0.03162 µM),relative viability (Bleomycin + Trametinib; first compound 0.1 µM),relative viability (Bleomycin + Trametinib; first compound 0.3162 µM),relative viability (Bleomycin + Trametinib; first compound 1 µM),relative viability (Etoposide + Olaparib; first compound 0.01 µM),relative viability (Etoposide + Olaparib; first compound 0.03162 µM),relative viability (Etoposide + Olaparib; first compound 0.1 µM),relative viability (Etoposide + Olaparib; first compound 0.3162 µM),relative viability (Etoposide + Olaparib; first compound 1 µM),relative viability (Etoposide + Pictilisib; first compound 0.01 µM),relative viability (Etoposide + Pictilisib; first compound 0.03162 µM),relative viability (Etoposide + Pictilisib; first compound 0.1 µM),relative viability (Etoposide + Pictilisib; first compound 0.3162 µM),relative viability (Etoposide + Pictilisib; first compound 1 µM),relative viability (Bleomycin + Luminespib; first compound 0.01 µM),relative viability (Bleomycin + Luminespib; first compound 0.03162 µM),relative viability (Bleomycin + Luminespib; first compound 0.1 µM),relative viability (Bleomycin + Luminespib; first compound 0.3162 µM),relative viability (Bleomycin + Luminespib; first compound 1 µM)
201T,0.697,0.731,0.673,0.598,0.555,0.818,0.804,0.771,0.633,0.384,0.677,0.767,0.652,0.63,0.445,1.06,0.984,0.936,0.667,0.656
A549,,,,,,0.32,0.209,0.103,0.0476,0.037,0.49,0.432,0.221,0.0914,0.0659,,,,,
A-427,0.607,0.558,0.417,0.261,0.212,0.715,0.83,0.588,0.298,0.221,0.726,0.817,0.507,0.469,0.169,0.747,0.775,0.753,0.256,0.158
ABC-1,,,,,,0.79,0.873,0.663,0.607,0.443,0.765,0.711,0.386,0.345,0.228,0.578,0.737,0.561,0.198,0.225
BEN,1.03,0.959,1.05,0.863,0.849,0.938,1.01,,0.936,0.672,0.477,0.62,,0.545,0.376,0.327,0.329,0.342,0.332,0.2
CAL-12T,0.339,0.326,0.294,0.174,0.18,0.716,0.623,0.693,0.368,0.213,0.508,0.438,0.323,0.391,0.258,0.493,0.555,0.233,0.173,0.143
COR-L23,0.432,0.518,0.303,0.133,0.129,0.368,0.294,0.375,0.223,0.169,0.733,0.726,0.401,0.418,0.122,0.501,0.352,0.258,0.122,0.122
COR-L 105,0.459,0.417,0.419,0.369,0.332,0.719,0.859,0.701,0.572,0.654,0.374,0.395,0.337,0.327,0.335,0.665,0.743,0.562,0.555,0.386
Calu-6,,,,,,0.585,0.547,0.505,0.274,0.202,0.841,0.908,0.764,0.457,0.25,,,,,
ChaGo-K-1,0.775,0.744,0.704,0.547,0.366,0.399,0.44,0.332,0.219,0.179,0.815,0.616,0.387,0.265,0.199,0.505,0.476,0.502,0.293,0.205
EBC-1,,,,,,0.641,0.689,0.532,0.405,0.266,0.362,0.384,0.218,0.287,0.156,,,,,
EKVX,0.396,0.298,0.301,0.196,0.158,0.832,0.955,0.658,0.647,0.293,0.447,0.429,0.208,0.309,0.241,0.79,0.824,0.804,0.357,0.264
EMC-BAC-2,,0.6,0.535,0.306,0.29,0.443,0.413,0.352,0.249,0.214,0.511,0.515,0.413,0.27,0.164,0.997,0.832,0.8,0.348,0.244
EPLC-272H,0.302,0.256,0.207,0.193,0.184,0.833,0.685,0.704,0.474,0.254,0.345,0.371,0.281,0.278,0.233,0.361,0.23,0.203,0.145,0.133
H3255,0.575,0.506,0.629,0.485,0.357,0.524,0.571,0.588,0.379,0.286,0.498,0.499,0.381,0.411,0.298,0.817,0.878,0.652,0.52,0.351
HARA,0.899,0.325,0.448,0.347,0.328,0.698,0.764,0.652,0.376,0.206,0.3,0.545,0.255,0.449,0.086,0.682,0.751,0.705,0.442,0.543
